# Test results published in ChEMBL document CHEMBL3867465, “Gastroprotective activity of synthetic coumarins: Role of endogenous prostaglandins, nitric oxide, non-protein sulfhydryls and vanilloid receptors” (2016).
# Experiments:
# Format in all cases: functional, Stomach
# Mus musculus [1] = assay: Gastroprotective activity in Swiss albino mouse assessed as reduction in HCl/EtOH-induced gastric lesions at 20 mg/kg, po pretreated for 50 mins followed by HCl/EtOH challenge measured after 1 hr; design: scale not given: the % may be the effect or the level left
# Mus musculus [2] = assay: (§1) Gastroprotective activity in Swiss albino mouse assessed as reduction in HCl/EtOH-induced gastric lesions by measuring lesion index at 10 mg/kg, sc pretreated followed by HCl/EtOH challenge measured after 1 hr (reference value: 38.8 +/- 1.6 millimeter)
# Mus musculus [3] = assay: as §1, with “20” for “10”, “po” for “sc”, “pretreated for 50 mins” for “pretreated”, “hr in presence of PG synthesis inhibitor indomethacin” for “hr”
# Mus musculus [4] = assay: (§2) Gastroprotective activity in Swiss albino mouse assessed as reduction in HCl/EtOH-induced gastric lesions by measuring lesion index at 20 mg/kg, po pretreated for 50 mins followed by HCl/EtOH challenge measured after 1 hr (reference value: 38.8 +/- 1.6 millimeter)
# Mus musculus [5] = assay: as §2, with “hr in presence of NO synthase inhibitor NG-nitro-L-arginine methyl ester” for “hr”
# Mus musculus [6] = assay: as §2, with “hr in presence of vanilloid receptor antagonist ruthenium red” for “hr”
# Mus musculus [7] = assay: as §2, with “hr in presence of sulfhydryl blocker N-ethylmaleimide” for “hr”
# Mus musculus [8] = assay: Gastroprotective activity in Swiss albino mouse assessed as reduction in HCl/EtOH-induced gastric lesions by measuring lesion index at 30 mg/kg, sc pretreated followed by HCl/EtOH challenge measured after 1 hr (reference value: 38.8 +/- 1.6 millimeter)
# Mus musculus [9] = assay: Gastroprotective activity in Swiss albino mouse assessed as reduction in HCl/EtOH-induced gastric lesions by measuring lesion index at 100 mg/kg, po pretreated for 50 mins followed by HCl/EtOH challenge measured after 1 hr (reference value: 38.8 +/- 1.6 millimeter)
# Mus musculus [10] = assay: Gastroprotective activity in Swiss albino mouse assessed as reduction in HCl/EtOH-induced gastric lesions by measuring lesion index at 70 mg/kg, ip pretreated followed by HCl/EtOH challenge measured after 1 hr (reference value: 38.8 +/- 1.6 millimeter)
Compound,Activity (Mus musculus [1]) [%],also measured
CCOC(=O)c1cc2cccc(O)c2oc1=O,15,
Cc1cc(=O)oc2cc(O)ccc12 [HYMECROMONE],31,
CCN1C(=O)C=CC1=O [N-ETHYLMALEIMIDE],,Activity (Mus musculus [2]): 40.1 mm
CC(=O)c1cc2ccccc2oc1=O [3-ACETYLCOUMARIN],66,
CC(=O)c1cc2cccc(O)c2oc1=O,41,
"Cc1cc(=O)oc2cc(O)cc(O)c12 [5,7-DIHYDROXY-4-METHYLCOUMARIN]",45,
Cc1c(OCC(F)(F)F)ccnc1C[S+]([O-])c1nc2ccccc2[nH]1 (stereo not drawn) [LANSOPRAZOLE],74,
O=c1cc(CN2CCOCC2)c2ccc(O)cc2o1 [OXAZORONE],75,Activity (Mus musculus [3]): 13.6 mm; Activity (Mus musculus [4]): 10.3 mm; Activity (Mus musculus [5]): 34.7 mm; Activity (Mus musculus [6]): 14.4 mm; Activity (Mus musculus [7]): 28.8 mm
CNCc1cc(=O)oc2cc(O)ccc12,49,
COc1ccc2c(c1)c(CC(=O)O)c(C)n2C(=O)c1ccc(Cl)cc1 [INDOMETHACIN],,Activity (Mus musculus [8]): 41.1 mm
O=C(O)Cc1cc(=O)oc2cc(O)ccc12,68,
O=C(Oc1ccccc1)c1cc2ccc(O)cc2oc1=O,63,
O=c1ccc2cc(O)c(O)cc2o1 [ESCULETIN],17,
O=C(O)c1cc2ccc(O)cc2oc1=O,60,
O=c1cc(CCl)c2c(O)cc(O)cc2o1,42,
O=c1cc(CN2CCN(CCO)CC2)c2ccc(O)cc2o1,65,
CC1(C)[C@@H](OC(=O)CCC(=O)O)CC[C@]2(C)[C@H]3C(=O)C=C4[C@@H]5C[C@@](C)(C(=O)O)CC[C@]5(C)CC[C@@]4(C)[C@]3(C)CC[C@@H]12 [CARBENOXOLONE],,Activity (Mus musculus [9]): 13.1 mm
CCOC(=O)c1cc2ccccc2oc1=O,35,
COc1cc2ccc(=O)oc2cc1O [SCOPOLETIN],61,
COC(=O)[C@@H](N)CCCNC(=N)N[N+](=O)[O-] [L-NAME],,Activity (Mus musculus [10]): 35.7 mm
CC(=O)c1cc2ccc(O)cc2oc1=O,15,
CCOC(=O)c1cc2cccc(OC)c2oc1=O,0,
O=c1cc(CCl)c2ccc(O)cc2o1,57,
